Experimental data from patent US11753397B2, “Cereblon binders for the degradation of ikaros” (C4 Therapeutics, Inc., priority 2018, dated 2023).

Tested on: NCIH929.1 cells
Assay: Cell viability assay (CellTiter-Glo 2.0, ATP quantification)
Assay type: cell-based
Details: NCIH929.1 cell viability, CellTiter-Glo 2.0, 96 hr incubation, top concentration 1 μM
In short: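 Cells seeded at 750/well in RPMI with 10% FBS and 0.05 mM 2-mercaptoethanol, exposed 96 h at 37 °C to 10-point half-log dilutions in duplicate, top 1 μM. Viability by CellTiter-Glo 2.0 ATP luminescence, with a day-0 read as cytostatic baseline (CT0).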

| SMILES | GI50 |
| --- | --- |
| CC(C)(C)OC(=O)CN1CC(n2cc(CNc3cccc4c3C(=O)N(C3CCC(=O)NC3=O)C4=O)cn2)C1 (centres unmarked) [Compound 184, tert-butyl 2-(3-(4-(((2-(2,6-Dioxopiperidin-3-yl)-1,3-dioxoisoindolin-4-yl)amino)methyl)-1H-pyrazol-1-yl)azetidin-1-yl)acetate] | < 100 nM |
| CN(C)CCC(Nc1cccc2c1C(=O)N(C1CCC(=O)NC1=O)C2=O)c1cnn(C2CCN(C(=O)OC(C)(C)C)CC2)c1 (centres unmarked) [Compound 187, tert-Butyl 4-(4-(3-(dimethylamino)-1-((2-(2,6-dioxopiperidin-3-yl)-1,3-dioxoisoindolin-4-yl)amino)propyl)-1H-pyrazol-1-yl)piperidine-1-carboxylate] | > 100 nM |
| CC1(C(=O)N2CCC(n3ncc(CNc4cccc5c4C(=O)N(C4CCC(=O)NC4=O)C5=O)c3Br)CC2)CCC1 (centres unmarked) [Compound 188, 4-(((5-Bromo-1-(1-(1-methylcyclobutane-1-carbonyl)piperidin-4-yl)-1H-pyrazol-4-yl)methyl)amino)-2-(2,6-dioxopiperidin-3-yl)isoindoline-1,3-dione] | < 100 nM |
| CC(C)(C)OC(=O)N1CCC(n2ncc(CNc3cccc4c3C(=O)N(C3CCC(=O)NC3=O)C4=O)c2CC(=O)C2CC2)CC1 (centres unmarked) [Compound 189, tert-Butyl 4-[5-(2-cyclopropyl-2-oxo-ethyl)-4-[[[2-(2,6-dioxo-3-piperidyl)-1,3-dioxo-isoindolin-4-yl]amino]methyl]pyrazol-1-yl]piperidine-1-carboxylate] | < 100 nM |
| CC1(C(=O)N2CCC(n3ncc(CNc4cccc5c4C(=O)N(C4CCC(=O)NC4=O)C5=O)c3C#CC3CC3)CC2)CCC1 (centres unmarked) [Compound 190, 4-(((5-(Cyclopropylethynyl)-1-(1-(1-methylcyclobutane-1-carbonyl)piperidin-4-yl)-1H-pyrazol-4-yl)methyl)amino)-2-(2,6-dioxopiperidin-3-yl)isoindoline-1,3-dione] | < 100 nM |
| CC1(C(=O)N2CCC(n3cc(CNc4cccc5c4C(=O)N(C4CCC(=O)NC4=O)C5=O)c(Cl)n3)CC2)CCC1 (centres unmarked) [Compound 191, 4-[[3-chloro-1-[1-(1-methylcyclobutanecarbonyl)-4-piperidyl]pyrazol-4-yl]methylamino]-2-(2,6-dioxo-3-piperidyl)isoindoline-1,3-dione] | < 1 nM |
| C#Cc1c(CNc2cccc3c2C(=O)N(C2CCC(=O)NC2=O)C3=O)cnn1C1CCN(C(=O)C2(C)CCC2)CC1 (centres unmarked) [Compound 192, 2-(2,6-Dioxopiperidin-3-yl)-4-(((5-ethynyl-1-(1-(1-methylcyclobutane-1-carbonyl)piperidin-4-yl)-1H-pyrazol-4-yl)methyl)amino)isoindoline-1,3-dione] | < 100 nM |
| CC1(C(=O)N2CCC(n3ncc(CNc4cccc5c4C(=O)N(C4CCC(=O)NC4=O)C5=O)c3C#N)CC2)CCC1 (centres unmarked) [Compound 194, 4-(((2-(2,6-Dioxopiperidin-3-yl)-1,3-dioxoisoindolin-4-yl)amino)methyl)-1-(1-(1-methylcyclobutane-1-carbonyl)piperidin-4-yl)-1H-pyrazole-5-carbonitrile] | < 100 nM |
| CC1(C)C[C@H](n2cc(CNc3cccc4c3C(=O)N(C3CCC(=O)NC3=O)C4=O)cn2)CCN1C(=O)C12C3C4C5C3C1C5C42 (stereo partly drawn) [Compound 196, 4-[[1-[(4R)-1-(Cubane-1-carbonyl)-2,2-dimethyl-4-piperidyl]pyrazol-4-yl]methylamino]-2-(2,6-dioxo-3-piperidyl)isoindoline-1,3-dione] | < 1 nM |
| CC1(C)C[C@@H](n2cc(CNc3cccc4c3C(=O)N(C3CCC(=O)NC3=O)C4=O)cn2)CCN1C(=O)C12C3C4C5C3C1C5C42 (stereo partly drawn) [Compound 197, 4-[[1-[(4S)-1-(Cubane-1-carbonyl)-2,2-dimethyl-4-piperidyl]pyrazol-4-yl]methylamino]-2-(2,6-dioxo-3-piperidyl)isoindoline-1,3-dione] | < 100 nM |
| CC(C)(C)OC(=O)N1CCC(n2cc(C(Nc3cccc4c3C(=O)N(C3CCC(=O)NC3=O)C4=O)c3cn(C4CCN(C(=O)OC(C)(C)C)CC4)nn3)nn2)CC1 (centres unmarked) [Compound 203, tert-Butyl 4-[4-[[1-(1-tert-butoxycarbonyl-4-piperidyl)triazol-4-yl]-[[2-(2,6-dioxo-3-piperidyl)-1,3-dioxo-isoindolin-4-yl]amino]methyl]triazol-1-yl]piperidine-1-carboxylate] | > 100 nM |
| O=C1CCC(N2C(=O)c3cccc(NCc4cnn(C5CCN(CC6(C#CC7CC7)CCC6)CC5)c4)c3C2=O)C(=O)N1 (centres unmarked) [Compound 204, 4-({1-[1-(1-Cyclopropylethynyl-cyclobutylmethyl)-piperidin-4-yl]-1H-pyrazol-4-ylme-thyl}-amino)-2-(2,6-dioxo-piperidin-3-yl)-isoindole-1,3-dione] | < 100 nM |
| O=C1CCC(N2C(=O)c3cccc(NCc4cnn(C5CCN(C(=O)C6(C#CC7CC7)CCC6)CC5)c4)c3C2=O)C(=O)N1 (centres unmarked) [Compound 205, 4-({1-[1-(1-Cyclopropylethynyl-cyclobutanecarbonyl)-piperidin-4-yl]-1H-pyrazol-4-yl-methyl}-amino)-2-(2,6-dioxo-piperidin-3-yl)-isoindole-1,3-dione] | < 100 nM |
| CC1(C(=O)N2CCC(n3ncc4c3CCC4Nc3cccc4c3C(=O)N(C3CCC(=O)NC3=O)C4=O)CC2)CCC1 (centres unmarked) [Compound 207, 2-(2,6-Dioxo-piperidin-3-yl)-4-{1-[1-(1-methyl-cyclobutanecarbonyl)-piperidin-4-yl]-1,4,5,6-tetrahydro-cyclopentapyrazol-4-ylamino}-isoindole-1,3-dione] | < 100 nM |
